Measurements as given in US8822539B2, “Combination therapies: inhibitors of GABA transaminase and NKCC1” (Children's Medical Center Corporation, priority 2010, dated 2014).

Legend:
[1] = test system: Sprague Dawley rats; test: rat model of vigabatrin (VGB)-induced retinal toxicity, histopathologic analysis of retina; conditions: for VGB-induced retinal toxicity: 30 days
Procedure: We closely follow the methods of Duboc, et al (12) that recommend 30 days of treatment in juvenile rats to induce a lesion.
Model of VGB-induced toxicity. VGB is administered to young adult/juvenile Sprague Dawley rats between 6-7 weeks of age for a period of 30 days. VGB is dissolved in 0.9% NaCl at 100 mg/mL and injected intraperitoneally (i.p.) daily for 30 days at doses of 5 and 3 mg/day as described for treatment of animal epilepsy (26).
Treatment groups. We use of 15 animals per group. […] The doses are daily.
Histopathologic analysis of retina. As per established protocols eye cups are fixed overnight at 4° C. in 4% (wt/vol) paraformaldehyde in phosphate buffered saline PBS) 0.01M, pH 7.4. After cryoprotection in PBS containing successively 10, 20, and 30% sucrose at 4° C., the tissue is embedded in OCT (Labonord, Villeneuve d'Ascq, France). A preliminary analysis of general retinal morphology is performed on vertical sections (8-10 μm thickness) using hematoxylin and eosin. Additional sections are permeabilized for 5 minutes in PBS containing 0.1% Triton X-100 (Sigma, St. Louis, Mo.), rinsed, and incubated in PBS containing 1% bovine serum albumin (Eurobio, Les-Ulis, France), 0.1% Tween 20 (Sigma), and 0.1% sodium azide (Merck, Fontenay-Ss-Bois) for 2 hours at room temperature. The primary antibody is added to the solution and incubated for 2 hours at room temperature. Antibodies were anti-GFAP rabbit polyclonal antibody (1:400; DAKO), and antiactive caspase-3 rabbit polyclonal antibody (1:100; Cell Signaling Technology, Beverly, Mass.). […] Cone photoreceptors are stained with peanut agglutinin lectin coupled to Texas Red (PNA, 1:40; Sigma). […] The dye, diamidiphenyl-indole (DAPI), is added to any incubation solution. Sections are mounted with Fluorsave reagent (Calbiochem, San Diego, Calif.). PNA-stained cone inner/outer segments are counted on retinal sections in eight consecutive 300 μm-wide optical windows on each side of the optic nerve under the 40× objective. Areas with a disorganized outer nuclear layer are specifically excluded from this count. Vertical sections are stained with hematoxylin and eosin.
Tissue Preparation for Electron Microscopy. […] The tissue is rinsed in cacodylate 0.15M and postfixed in 1% osmium tetroxide (Electron MicroscopySciences) for 1 hour. After dehydration in ethanol, and propylene oxide, the tissue is embedded in epon. Semithin sections are stained with methylene blue and ultrathin sections (80 nm) contrasted with lead citrate and uranyl acetate.
Data analysis. For quantification we use the same outcome measures of retinal injury as Duboc et al and Jammoul et al (12, 25). Vertical sections along the dorsoventral axis are selected at the optic nerve. After DAPI nuclear staining, the lengths of disorganized retinal areas are measured; GFAP immunostaining is used for detection and quantification of retinal areas with reactive gliosis. The cone photoreceptor density is calculated after cone arrestin immunostaining to visualize the inner/outer segments of cone photoreceptors; areas with disorganized retinal layering were excluded.

[2] = target: T1, NKCC1 (Rattus norvegicus, UniProt E9PTX9); conditions: bumetanide 0.1 mg/kg, rats, prior work; cited from earlier work
T1 construct: host or cells: rat brain, in vivo (endogenous protein)
T1 sequence (E9PTX9 1-1203): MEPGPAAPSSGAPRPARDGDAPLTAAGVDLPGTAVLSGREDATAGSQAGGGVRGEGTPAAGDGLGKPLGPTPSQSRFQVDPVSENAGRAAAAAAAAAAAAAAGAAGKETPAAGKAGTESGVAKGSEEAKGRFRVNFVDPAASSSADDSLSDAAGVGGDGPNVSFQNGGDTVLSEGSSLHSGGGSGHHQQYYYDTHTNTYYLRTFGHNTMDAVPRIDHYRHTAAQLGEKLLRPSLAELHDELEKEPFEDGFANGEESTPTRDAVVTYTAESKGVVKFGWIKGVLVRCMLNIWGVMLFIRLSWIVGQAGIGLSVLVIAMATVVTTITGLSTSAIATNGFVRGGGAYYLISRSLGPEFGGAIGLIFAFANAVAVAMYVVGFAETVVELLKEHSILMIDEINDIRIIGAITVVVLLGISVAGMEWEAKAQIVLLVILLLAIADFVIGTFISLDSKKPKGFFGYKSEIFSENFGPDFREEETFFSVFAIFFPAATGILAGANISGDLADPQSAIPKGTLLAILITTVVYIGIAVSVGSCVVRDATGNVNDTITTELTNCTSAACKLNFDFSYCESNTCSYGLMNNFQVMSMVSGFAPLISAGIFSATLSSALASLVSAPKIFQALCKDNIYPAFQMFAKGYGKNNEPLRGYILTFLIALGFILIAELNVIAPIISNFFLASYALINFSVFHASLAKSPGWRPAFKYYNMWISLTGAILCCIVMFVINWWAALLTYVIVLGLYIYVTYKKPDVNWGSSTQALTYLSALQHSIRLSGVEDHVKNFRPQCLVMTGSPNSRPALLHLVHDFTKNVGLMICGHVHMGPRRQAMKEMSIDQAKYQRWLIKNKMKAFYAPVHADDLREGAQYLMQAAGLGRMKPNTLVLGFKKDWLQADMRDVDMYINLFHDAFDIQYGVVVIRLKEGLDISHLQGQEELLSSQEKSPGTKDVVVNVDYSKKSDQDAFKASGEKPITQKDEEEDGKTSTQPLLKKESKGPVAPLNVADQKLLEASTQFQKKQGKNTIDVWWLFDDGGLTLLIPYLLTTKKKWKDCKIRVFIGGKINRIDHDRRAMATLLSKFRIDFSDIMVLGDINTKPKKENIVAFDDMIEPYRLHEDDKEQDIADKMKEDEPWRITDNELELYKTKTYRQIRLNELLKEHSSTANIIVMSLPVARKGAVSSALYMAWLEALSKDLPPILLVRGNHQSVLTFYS

[3] = test system: Sprague Dawley rat pups; test: rodent model of VGB-induced IME (white matter injury and vacuolation); type: in vivo
Procedure: Model of VGB-induced IME. We adhere to the same protocol used by Ovation in recent studies. Sprague Dawley rat pups are treated from postnatal day 4-25 with VBG (50 mg/kg) or vehicle. This is administered by oral gavage to rats starting on PND 4. The single dose of 50 mg/kg was selected on the basis of the previous study in which it produced vacuolar lesions (24, 31). Rats are sacrificed at P25 and perfused with 4% paraformaldehyde. Brains are cryoprotected in sucrose for frozen sectioning.
Treatment groups. We use an n of 15 animals per group. Vehicle only, VGB alone, or VGB and bumetanide. The doses are daily.
Histological and immunocytochemical methods. Using our published protocols for quantification of white matter myelination (29) we perform MBP staining. 16 μm coronal cryostat sections (Leica CM3050 S) were collected on Superfrost Plus slides. […]
Data analysis. Fluorescence images are obtained on a Zeiss Axioscope, using a Spot digital camera and Advanced 4.5 software (Diagnostic Instruments). […] ImageJ software is used to quantitate MBP and O4 immunostaining as a proportion of the white matter capsule area (29). This methodology was validated with ImageJ software quantitation of total area of MBP immunostaining within each 2.4 mm2 field. […]

[4] = FDA not approvable action 1998; cited from earlier work
[5] = bumetanide higher dose (0.2 mg/kg)

## CCCCNc1cc(C(=O)O)cc(S(N)(=O)=O)c1Oc1ccccc1 [bumetanide, Bumetanide]
[1]; bumetanide 0.2 mg/kg dose with VGB
  VGB-induced retinal toxicity: additional efficacy
[1]; [5]
  adverse effects of diuresis: no adverse effects of any modest diuresis
  effects on body weight or skin turgor: nor any significant effects on body weight or skin turgor
[1]; lower dose of bumetanide 0.1 mg/kg i.p. daily with VGB 5 mg/day
  VGB-induced retinal toxicity: significant decrease in toxicity
[2]
  suppression of NKCC1 in brain: effectively suppresses NKCC1 in brain
[3]; higher dose of bumetanide (0.2 mg/kg) with VGB 50 mg/kg/day
  protection against VGB-induced white matter injury / IME: additional efficacy
[3]; lower dose of bumetanide (0.1 mg/kg/day i.p.) with VGB 50 mg/kg/day, PND 4-25
  protection against VGB-induced white matter injury / IME: shows protective efficacy

## C=CC(N)CCC(=O)O (stereo not drawn) [vigabatrin, gamma-vinyl-GABA]
[4]
  incidence of permanent vision loss: 30%
[1]; VGB i.p. daily for 30 days, juvenile rats
  vigabatrin toxicity in retina (histopathology): photoreceptor injury/loss and vacuolization
